pEC50, pIC50: −log10 of the molar value.
How the values were obtained:
[1] = biological target: T1, Human immunodeficiency virus type 1 integrase (Human immunodeficiency virus 1, UniProt Q7ZJM1); assay: Inhibition of HIV1 integrase using U5A/U5B double-stranded DNA as substrate by ELISA
[2] = system: Human immunodeficiency virus 1; assay: Antiviral activity against HIV1 3B infected in human MT4 cells assessed as inhibition of virus-induced cytopathic effect by MTT assay; type: functional, organism-based; conditions: Human immunodeficiency virus 1, 3B
[3] = Cytotoxicity against human MT4 cells by MTT assay; type: cell-based
[4] = biological target: T1, Human immunodeficiency virus type 1 integrase; assay: Inhibition of HIV1 integrase using U5A/U5B double-stranded DNA as substrate by ELISA in presence of BSA

T1 sequence (Q7ZJM1 whole entry): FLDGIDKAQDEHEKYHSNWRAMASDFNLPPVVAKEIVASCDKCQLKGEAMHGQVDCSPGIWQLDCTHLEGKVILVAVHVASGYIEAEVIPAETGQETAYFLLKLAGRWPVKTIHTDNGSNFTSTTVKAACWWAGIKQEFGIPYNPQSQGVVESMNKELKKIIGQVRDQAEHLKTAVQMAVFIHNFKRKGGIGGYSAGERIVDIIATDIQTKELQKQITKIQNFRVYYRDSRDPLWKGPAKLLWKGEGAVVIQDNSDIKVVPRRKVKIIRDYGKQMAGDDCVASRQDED

pIC50 [1]: 6.60 | pIC50 [4]: 4.77
SMILES: O=C(O)C(O)C(O)(Cc1ccc(O)c(O)c1)C(=O)O (racemic)
pEC50 [2]: < 4.66 | CC50 [3]: 22 µM

— ChEMBL document CHEMBL1154442, “The total synthesis of fukiic acid, an HIV-1 integrase inhibitor” (Eur J Med Chem, 2008)
